Results from patent publication US11986471B2, “Compounds and methods of use” (Tango Therapeutics, Inc., priority 2018, dated 2024).

Experiments:
HAP1 MTAP-deleted = test: SDMA in-cell western assay, HAP1 MTAP-deleted cell line; format: cell-based; conditions: for IC50: Homo sapiens, HAP1 MTAP-deleted cell line; for MTAP Intact/Deleted Ratio: IC50 ratio HAP1 MTAP-intact / HAP1 MTAP-deleted
Procedure, shortened: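 Readout is cellular SDMA signal by in-cell western, with IC50 values derived from it. The cells are MTAP-null HAP1, matched to an isogenic MTAP-intact HAP1 line.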

PRMT5 [1] = target: T1, PRMT5 (Homo sapiens, UniProt O14744); test: PRMT5 IC50 assay in the presence of MTA as cofactor; format: biochemical; conditions: for IC50: PRMT5, MTA as cofactor
T1 construct: purchased Viva (custom protein)
T1 sequence (O14744 whole entry): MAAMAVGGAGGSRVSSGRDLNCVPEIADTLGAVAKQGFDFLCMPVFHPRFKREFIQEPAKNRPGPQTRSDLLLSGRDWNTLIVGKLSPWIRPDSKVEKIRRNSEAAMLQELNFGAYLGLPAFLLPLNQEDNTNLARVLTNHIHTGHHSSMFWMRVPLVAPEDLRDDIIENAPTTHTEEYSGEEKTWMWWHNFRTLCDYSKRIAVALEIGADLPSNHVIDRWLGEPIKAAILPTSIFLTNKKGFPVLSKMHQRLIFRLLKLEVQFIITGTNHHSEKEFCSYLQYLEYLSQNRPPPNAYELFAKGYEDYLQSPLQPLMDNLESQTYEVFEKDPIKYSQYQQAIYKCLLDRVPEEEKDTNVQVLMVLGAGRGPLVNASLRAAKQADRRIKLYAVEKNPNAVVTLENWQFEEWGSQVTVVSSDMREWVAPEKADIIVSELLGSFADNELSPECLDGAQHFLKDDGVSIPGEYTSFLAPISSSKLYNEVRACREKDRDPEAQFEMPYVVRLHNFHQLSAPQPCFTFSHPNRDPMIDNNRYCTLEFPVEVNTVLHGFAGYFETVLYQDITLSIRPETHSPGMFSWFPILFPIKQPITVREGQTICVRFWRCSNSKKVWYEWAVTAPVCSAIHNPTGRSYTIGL
T1 sequence (Q9BQA1 whole entry partner): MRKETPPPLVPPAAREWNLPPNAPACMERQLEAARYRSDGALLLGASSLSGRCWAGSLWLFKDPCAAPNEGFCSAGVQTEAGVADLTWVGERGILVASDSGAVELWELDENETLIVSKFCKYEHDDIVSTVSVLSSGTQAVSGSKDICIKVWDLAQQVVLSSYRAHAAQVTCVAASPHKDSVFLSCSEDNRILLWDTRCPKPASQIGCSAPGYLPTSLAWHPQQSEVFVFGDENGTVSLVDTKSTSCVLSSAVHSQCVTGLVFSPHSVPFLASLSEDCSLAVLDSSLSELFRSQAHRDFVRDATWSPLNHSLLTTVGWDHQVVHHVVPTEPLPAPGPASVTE
Procedure, shortened: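 For the SAM-containing format, dividing IC50 by 1.5 yields Ki; for the MTA-containing format the divisor is 13.5. A third format without cofactor gives IC50 alone.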

PRMT5 [2] = target: T1, PRMT5; test: PRMT5 IC50 assay in the presence of SAM as cofactor; format: biochemical
Procedure, shortened: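 IC50 against PRMT5 determined with SAM as cofactor, with no cofactor, and with MTA as cofactor. Ki derived as IC50/1.5 for the SAM assay and IC50/13.5 for the MTA assay; SAM Ki to MTA Ki ratio also reported.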

PRMT5 [3] = target: T1, PRMT5; test: PRMT5 IC50 assay with no cofactor; format: biochemical
Procedure, shortened: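 IC50 values were measured against human PRMT5 with SAM, with MTA, or with no cofactor. Ki was derived from IC50 as Ki=IC50/1.5 with SAM and Ki=IC50/13.5 with MTA, and the Ki(SAM)/Ki(MTA) ratio was then taken.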

HAP1 MTAP-intact = test: SDMA in-cell western assay, HAP1 MTAP-intact cell line; format: cell-based; conditions: Homo sapiens
Procedure, shortened: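 IC50 values come from SDMA in-cell western staining of HAP1 cells. The MTAP-intact line carries endogenous MTAP, while its MTAP-deleted counterpart lacks MTAP entirely. A selectivity ratio of at least 3 fold marks a compound as MTAP-selective.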

[4] = ratio between Ki in the presence of SAM and Ki in the presence of MTA
[5] = ratio between the Ki in the presence of SAM and the Ki in the presence of MTA

Compound	IC50 (HAP1 MTAP-deleted)	MTAP Intact/Deleted Ratio (HAP1 MTAP-deleted)	IC50 (PRMT5 [1])	SAM/MTA Ratio (PRMT5 [1]; [4])	IC50 (PRMT5 [2])	IC50 (PRMT5 [3]; read-out: No Co-factor IC50)	IC50 (HAP1 MTAP-intact)	SAM/MTA Ratio (PRMT5 [1]; [5])	IC50 (PRMT5 [3])
CC(=O)N1CCC(Nc2cc(C(=O)NC[C@H](O)CN3CCc4c(ccc(OCc5cn[nH]c5)c4Cl)C3)ncn2)CC1 [Compound 261, 6-[(1-acetyl-4-piperidyl)amino]-N-[(2S)-3-[5-chloro-6-(1H-pyrazol-4-ylmethoxy)-3,4-dihydro-1H-isoquinolin-2-yl]-2-hydroxy-propyl]pyrimidine-4-carboxamide]	1000 to 10000 nM	C* (an IC50 ratio of less than 3 fold between the IC50 in the HAP1 MTAP-intact cell line and the HAP1 MTAP-deleted cell line)	50 to 500 nM	A (a Ki ratio greater than or equal to 10 fold between the Ki in the presence of SAM and the Ki in the presence of MTA)	50 to 500 nM	0.5 to 5 µM	< 1 µM		
Cc1ncoc1COc1ccc2c(c1C)CCN(C[C@@H](O)CNC(=O)c1ccnc(NC3CCCC3)c1)C2 [Compound 418, 2-(cyclopentylamino)-N-[(2S)-2-hydroxy-3-{5-methyl-6-[(4-methyl-1,3-oxazol-5-yl)methoxy]-1,2,3,4-tetrahydroisoquinolin-2-yl}propyl]pyridine-4-carboxamide]	1000 to 10000 nM	C* (an IC50 ratio of less than 3 fold between the IC50 in the HAP1 MTAP-intact cell line and the HAP1 MTAP-deleted cell line)	50 to 500 nM	A (a Ki ratio greater than or equal to 10 fold between the Ki in the presence of SAM and the Ki in the presence of MTA)	50 to 500 nM	≥ 5 µM	≥ 10 µM		
Cc1c(OCc2cnco2)ccc2c1CCN(C[C@@H](O)CNC(=O)c1cc(NC3CCN(C(=O)C(C)C)CC3)ncn1)C2 [Compound 520, N-[(2S)-2-hydroxy-3-{5-methyl-6-[(1,3-oxazol-5-yl)methoxy]-1,2,3,4-tetrahydroisoquinolin-2-yl}propyl]-6-{[1-(2-methylpropanoyl)piperidin-4-yl]amino}pyrimidine-4-carboxamide]	1000 to 10000 nM	B* (an IC50 ratio greater than or equal to 3 fold but lower than 10 fold between the IC50 in the HAP1 MTAP-intact cell line and the HAP1 MTAP-deleted cell line)	50 to 500 nM		50 to 500 nM		≥ 10 µM	A (a Ki ratio greater than or equal to 10 fold between the Ki in the presence of SAM and the Ki in the presence of MTA)	≥ 5 µM
CC(=O)N1CCN(c2cc(C(=O)NC[C@H](O)CN3CCc4cc(OCc5cnco5)ccc4C3)cc(NC3CCC3)n2)CC1 [Compound 497, (S)-2-(4-acetylpiperazin-1-yl)-6-(cyclobutylamino)-N-(2-hydroxy-3-(6-(oxazol-5-ylmethoxy)-3N-dihydroisoquinolin-2(1H)-yl)propyl)isonicotinamide]	< 1000 nM	C* (an IC50 ratio of less than 3 fold between the IC50 in the HAP1 MTAP-intact cell line and the HAP1 MTAP-deleted cell line)	50 to 500 nM		50 to 500 nM		1 to 10 µM	A (a Ki ratio greater than or equal to 10 fold between the Ki in the presence of SAM and the Ki in the presence of MTA)	0.5 to 5 µM
COCCN(C)c1cc(C(=O)NC[C@H](O)CN2CCc3cc(OCc4ocnc4C)ccc3C2)cc(NC2CCN(C(C)=O)CC2)n1 [Compound 582]	< 1000 nM	A* (an IC50 ratio greater than or equal to 10 fold between the IC50 in the HAP1 MTAP-intact cell line and the HAP1 MTAP-deleted cell line)	50 to 500 nM		50 to 500 nM		1 to 10 µM	A (a Ki ratio greater than or equal to 10 fold between the Ki in the presence of SAM and the Ki in the presence of MTA)	0.5 to 5 µM
Cc1ncoc1COc1ccc2c(c1)CCN(C[C@@H](O)CNC(=O)c1ccnc(NC3CC4(CC4)C3)c1)C2 [Compound 621, (S)—N-(2-hydroxy-3-(6-((4-methyloxazol-5-yl)methoxy)-3,4-dihydroisoquinolin-2(1H)-yl)propyl)-2-(spiro[2.3]hexan-5-ylamino)isonicotinamide]	< 1000 nM	B* (an IC50 ratio greater than or equal to 3 fold but lower than 10 fold between the IC50 in the HAP1 MTAP-intact cell line and the HAP1 MTAP-deleted cell line)	50 to 500 nM		50 to 500 nM		< 1 µM	A (a Ki ratio greater than or equal to 10 fold between the Ki in the presence of SAM and the Ki in the presence of MTA)	0.5 to 5 µM
CC(=O)N1CCN(c2cc(C(=O)NC[C@H](O)CN3CCc4cc(OCc5ocnc5C)ccc4C3)cc(NC3CCC3)n2)CC1 [Compound 556, 2-(4-acetylpiperazin-1-yl)-6-(cyclobutylamino)-N-[(2S)-2-hydroxy-3-{6-[(4-methyl-1,3-oxazol-5-yl)methoxy]-1,2,3,4-tetrahydroisoquinolin-2-yl}propyl]pyridine-4-carboxamide]	< 1000 nM	B* (an IC50 ratio greater than or equal to 3 fold but lower than 10 fold between the IC50 in the HAP1 MTAP-intact cell line and the HAP1 MTAP-deleted cell line)	50 to 500 nM		50 to 500 nM		< 1 µM	A (a Ki ratio greater than or equal to 10 fold between the Ki in the presence of SAM and the Ki in the presence of MTA)	0.5 to 5 µM
Cn1nccc1COc1cc(F)c2c(c1Cl)CCN(C[C@@H](O)CNC(=O)c1ccnc(NC3CCC3)c1)C2 [Compound 282, N-[(2S)-3-[5-chloro-8-fluoro-6-[(2-methylpyrazol-3-yl)methoxy]-3,4-dihydro-1H-isoquinolin-2-yl]-2-hydroxy-propyl]-2-(cyclobutylamino)pyridine-4-carboxamide]	≥ 10000 nM	C* (an IC50 ratio of less than 3 fold between the IC50 in the HAP1 MTAP-intact cell line and the HAP1 MTAP-deleted cell line)	500 to 5000 nM	A (a Ki ratio greater than or equal to 10 fold between the Ki in the presence of SAM and the Ki in the presence of MTA)	500 to 5000 nM	≥ 5 µM	≥ 10 µM		
Cc1ncoc1COc1ccc2c(c1C)CCN(C[C@@H](O)CNC(=O)c1cc(NC3CCC3)nc(OCCN(C)C)c1)C2 [Compound 500, 2-(cyclobutylamino)-6-[2-(dimethylamino)ethoxy]-N-[(2S)-2-hydroxy-3-{5-methyl-6-[(4-methyl-1,3-oxazol-5-yl)methoxy]-1,2,3,4-tetrahydroisoquinolin-2-yl}propyl]pyridine-4-carboxamide]	< 1000 nM	A* (an IC50 ratio greater than or equal to 10 fold between the IC50 in the HAP1 MTAP-intact cell line and the HAP1 MTAP-deleted cell line)	50 to 500 nM		50 to 500 nM		≥ 10 µM	A (a Ki ratio greater than or equal to 10 fold between the Ki in the presence of SAM and the Ki in the presence of MTA)	0.5 to 5 µM
COCCN(C)c1cc(C(=O)NC[C@H](O)CN2CCc3cc(OCc4ocnc4C)c(F)cc3C2)cc(NC2CCN(C(C)=O)CC2)n1 [Compound 612, 2-[(1-acetyl-4-piperidyl)amino]-N-[(2S)-3-[7-fluoro-6-[(4-methyloxazol-5-yl)methoxy]-3N-dihydro-1H-isoquinolin-2-yl]-2-hydroxy-propyl]-6-[2-methoxyethyl(methyl)amino]pyridine-4-carboxamide]	< 1000 nM	A* (an IC50 ratio greater than or equal to 10 fold between the IC50 in the HAP1 MTAP-intact cell line and the HAP1 MTAP-deleted cell line)	50 to 500 nM		50 to 500 nM		≥ 10 µM	A (a Ki ratio greater than or equal to 10 fold between the Ki in the presence of SAM and the Ki in the presence of MTA)	0.05 to 0.5 µM
Cc1c(OCc2cnco2)ccc2c1CCN(C[C@@H](O)CNC(=O)c1cccc(NC3CCC3)c1)C2 [Compound 351, 3-(cyclobutylamino)-N-[(2S)-2-hydroxy-3-{5-methyl-6-[(1,3-oxazol-5-yl)methoxy]-1,2,3,4-tetrahydroisoquinolin-2-yl}propyl]benzamide]	≥ 10000 nM	C* (an IC50 ratio of less than 3 fold between the IC50 in the HAP1 MTAP-intact cell line and the HAP1 MTAP-deleted cell line)	50 to 500 nM	A (a Ki ratio greater than or equal to 10 fold between the Ki in the presence of SAM and the Ki in the presence of MTA)	500 to 5000 nM	≥ 5 µM	≥ 10 µM		
COc1ccc(C(=O)N2CCc3cc(C(=O)NC[C@H](O)CN4CCc5cc(OCc6cnco6)ccc5C4)ccc3C2)cc1 [Compound 547, (S)—N-(2-hydroxy-3-(6-(oxazol-5-ylmethoxy)-3,4-dihydroisoquinolin-2(1H)-yl)propyl)-2-(4-methoxybenzoyl)-1,2,3,4-tetrahydroisoquinoline-6-carboxamide]	1000 to 10000 nM	C* (an IC50 ratio of less than 3 fold between the IC50 in the HAP1 MTAP-intact cell line and the HAP1 MTAP-deleted cell line)	50 to 500 nM		50 to 500 nM		1 to 10 µM	A (a Ki ratio greater than or equal to 10 fold between the Ki in the presence of SAM and the Ki in the presence of MTA)	0.5 to 5 µM
